Results reported in article PMC6124754, “Characterization of new, efficient Mycobacterium tuberculosis topoisomerase-I inhibitors and their interaction with human ABC multidrug transporters” (PLoS ONE, 2018).
Values after ≈ are worked out from the molar mass of the structure shown. “Also recorded” adds a separate entry of the source. Read-outs that look alike come from different tables or passages of the source.

Key:
HFF cell line = assay: Cytotoxicity, PrestoBlue 72 h, HFF; type: cell-based, human; conditions: Non-toxic = not toxic up to 20 μM; for IC50: read-out: Toxicity in HFF cell line, IC50
Procedure: (§1) The toxic effects of the selected MtTopo-I inhibitory Vichem compounds were tested in three cell lines, HFF (human foreskin fibroblast), HEK293 (human embryonic kidney) and A431 (human epidermoid carcinoma) cell lines, obtained from ATCC. Establishment of ABC transporter-expressing A431cell lines was achieved by retroviral transduction of the cells as described previously.
(§2) For cytotoxicity measurements the cells were seeded in a 96-well culture plate at 5,000 cells/well (A431, HEK293) or 6000 cells/well (HFF) and incubated overnight. […] After 72 hours of incubation viability was assessed by PrestoBlue® assay (Invitrogen). IC50 values were obtained by sigmoidal curve fitting in the GraphPad Prism software. All experiments were performed in triplicates and repeated at least in three independent experiments. DMSO, used as solvent of the compounds, had no effect on viability at the applied concentration.

HEK293 cell line = assay: Cytotoxicity, PrestoBlue 72 h, HEK293; type: cell-based, human; conditions: for IC50: Homo sapiens, HEK293, Non-toxic = not toxic up to 20 μM, read-out: Toxicity in HEK293 cell line, IC50; for Toxicity in HEK293 cell line, IC50: Non-toxic = not toxic up to 20 μM
Procedure: as §1, §2

parental A431 cell line = assay: Cytotoxicity, PrestoBlue 72 h, parental A431; type: cell-based, human; conditions: Non-toxic = not toxic up to 20 μM; for IC50: read-out: Toxicity in parental A431 cell line, IC50
Procedure: as §1, §2

MtTopo-I = molecular target: T1, MtTopo-I (Mycobacterium tuberculosis, UniProt P9WG49); assay: DNA relaxation assay of supercoiled pUC18 DNA by MtTopo-I; type: biochemical; conditions: minimum concentration providing complete inhibition
T1 construct: made in house; host or cells: E. coli
T1 sequence (P9WG49 whole entry): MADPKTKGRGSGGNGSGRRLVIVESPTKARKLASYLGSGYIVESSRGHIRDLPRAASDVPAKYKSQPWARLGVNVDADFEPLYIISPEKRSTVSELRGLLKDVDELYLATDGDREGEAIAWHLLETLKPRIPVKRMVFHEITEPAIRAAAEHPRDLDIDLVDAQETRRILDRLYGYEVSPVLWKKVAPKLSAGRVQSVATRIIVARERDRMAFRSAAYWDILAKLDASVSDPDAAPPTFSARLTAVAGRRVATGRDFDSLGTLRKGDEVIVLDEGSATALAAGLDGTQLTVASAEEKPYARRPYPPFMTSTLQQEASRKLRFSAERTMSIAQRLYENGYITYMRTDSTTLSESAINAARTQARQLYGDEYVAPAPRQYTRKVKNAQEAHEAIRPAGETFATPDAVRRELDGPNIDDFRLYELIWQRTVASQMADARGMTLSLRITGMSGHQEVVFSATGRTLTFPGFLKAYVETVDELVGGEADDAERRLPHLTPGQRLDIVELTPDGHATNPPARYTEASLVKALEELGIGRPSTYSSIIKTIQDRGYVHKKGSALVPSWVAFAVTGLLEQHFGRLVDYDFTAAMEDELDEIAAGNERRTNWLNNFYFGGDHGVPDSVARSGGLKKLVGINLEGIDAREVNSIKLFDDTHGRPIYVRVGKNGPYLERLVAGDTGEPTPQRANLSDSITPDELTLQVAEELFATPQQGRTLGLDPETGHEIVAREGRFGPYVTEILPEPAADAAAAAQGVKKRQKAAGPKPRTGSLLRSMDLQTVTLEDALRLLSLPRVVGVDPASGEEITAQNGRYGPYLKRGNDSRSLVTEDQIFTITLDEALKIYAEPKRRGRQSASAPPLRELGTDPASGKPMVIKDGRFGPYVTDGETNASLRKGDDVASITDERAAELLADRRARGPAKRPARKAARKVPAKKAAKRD

H37Rv Mtb strain = assay: H37Rv growth inhibition, resazurin reduction microplate assay (REMA); type: cell-based, Mycobacterium tuberculosis; conditions: for MIC90: Mycobacterium tuberculosis, H37RV, read-out: MIC90 of compounds in H37Rv growth test; for MIC90 / MIC90 of compounds in H37Rv growth test: minimum concentration providing 90% growth inhibition, 20 to 0.04 μM, N.I. = no inhibition observed up to 20 μM; for Toxicity in H37Rv assay (summary): S6 summary table; for Growth inhibition of H37Rv mycobacteria (in words): tested up to 20 μM
human ABCB1 [1] = molecular target: T2, human ABCB1 (Homo sapiens, UniProt P08183); assay: Cellular transport assay, Calcein-AM uptake in ABCB1-overexpressing PLB cells; type: cell-based; conditions: for ABC transporter transport assay, ABCB1 (summary): S6 summary table; for Effect on ABCB1 mediated transport (in words): PLB cells, compound 5 μM
T2 sequence (P08183 whole entry): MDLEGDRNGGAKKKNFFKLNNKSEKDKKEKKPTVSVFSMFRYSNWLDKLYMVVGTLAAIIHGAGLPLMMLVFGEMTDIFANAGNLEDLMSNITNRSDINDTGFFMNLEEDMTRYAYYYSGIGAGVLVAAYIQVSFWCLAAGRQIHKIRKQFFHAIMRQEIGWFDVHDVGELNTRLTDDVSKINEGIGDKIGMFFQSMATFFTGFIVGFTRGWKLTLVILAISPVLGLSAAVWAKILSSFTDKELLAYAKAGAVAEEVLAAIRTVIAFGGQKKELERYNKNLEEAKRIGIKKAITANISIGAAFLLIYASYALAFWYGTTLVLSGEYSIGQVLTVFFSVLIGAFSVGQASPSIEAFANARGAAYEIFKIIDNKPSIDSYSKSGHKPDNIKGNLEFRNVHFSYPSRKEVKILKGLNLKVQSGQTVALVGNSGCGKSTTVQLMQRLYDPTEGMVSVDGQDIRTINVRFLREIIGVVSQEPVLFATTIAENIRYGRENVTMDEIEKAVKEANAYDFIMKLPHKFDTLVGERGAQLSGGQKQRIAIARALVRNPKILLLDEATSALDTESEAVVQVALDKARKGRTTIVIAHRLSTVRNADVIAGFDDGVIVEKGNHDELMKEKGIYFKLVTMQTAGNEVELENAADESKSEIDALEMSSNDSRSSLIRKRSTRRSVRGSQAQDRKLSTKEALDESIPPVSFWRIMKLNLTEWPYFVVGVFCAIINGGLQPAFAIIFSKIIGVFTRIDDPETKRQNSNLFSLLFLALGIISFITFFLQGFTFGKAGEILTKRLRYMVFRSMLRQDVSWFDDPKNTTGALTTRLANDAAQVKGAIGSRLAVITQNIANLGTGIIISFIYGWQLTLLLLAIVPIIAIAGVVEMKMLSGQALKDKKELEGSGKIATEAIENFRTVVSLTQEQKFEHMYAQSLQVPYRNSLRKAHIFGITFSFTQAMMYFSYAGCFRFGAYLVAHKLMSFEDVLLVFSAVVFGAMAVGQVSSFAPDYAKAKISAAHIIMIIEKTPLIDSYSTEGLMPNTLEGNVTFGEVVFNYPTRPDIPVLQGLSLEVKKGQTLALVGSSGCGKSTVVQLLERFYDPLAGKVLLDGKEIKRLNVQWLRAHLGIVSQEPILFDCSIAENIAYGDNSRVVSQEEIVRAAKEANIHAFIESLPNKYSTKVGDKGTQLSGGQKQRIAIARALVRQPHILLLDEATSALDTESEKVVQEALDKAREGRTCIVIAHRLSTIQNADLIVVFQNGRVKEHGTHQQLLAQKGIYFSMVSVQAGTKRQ
Procedure: (§3) For cellular transport assays, mammalian PLB (lymphoblastoid) cell lines, overexpressing ABCB1 or ABCG2 were used. The parental PLB cell line was purchased from ATCC, and ABCB1 or ABCG2 overexpressing cell lines were established by using lentiviral vectors for human ABC transporters as described earlier in [29]. The transport assays were carried out in 96-well plates. 1x10^5 cells were incubated in the presence of 0.1 μM Calcein-AM or 1 μM DCV (Dye Cycler Violet) for the ABCB1 and for the ABCG2 assays, respectively. The assay was performed in HPMI medium (NaCl 120 mM, KCl 5 mM, MgCl2 0.4 mM, CaCl2 0.04 mM, HEPES 10 mM, NaHCO3 10 mM, glucose 10 mM, Na2HPO4 5 mM; pH 7.4). Fluorescence of the cells was detected using a Victor X3 plate reader (for Calcein, exc. at 485 nm, em. at 535 nm) or the Enspire 2300 (Perkin Elmer) plate reader (for DCV, exc. at 360 nm, em. at 440 nm). Kinetics of fluorescence intensity changes were analyzed to determine relative inhibition, compared to that of a reference agent, providing full inhibition of the ABC transporter. Two of the Vichem compounds examined (VCC979812 and VCC38977) were not compatible with the DCV uptake assay because of their intrinsic fluorescence, therefore for these two compounds ABCG2 transport inhibition was characterized by following mitoxantrone uptake. Mitoxantrone uptake was measured by flow cytometry (BD FACSCanto at 633 nm) by 20 minutes incubation in the presence of 7.5 μM mitoxantrone. Each compound was measured in at least three independent experiments with three parallels in each case. DMSO, used as a solvent of compounds had no effect in this assay at the applied concentration.

[2] = tested on: HFF, HEK293 and A431 cell lines; type: cell-based, human
Procedure: as §1, §2

[3] = tested on: ABCB1-overexpressing A431 cell line; conditions: human, 72 h
[4] = tested on: ABCG2-overexpressing A431 cell line; conditions: human, 72 h
human ABCB1 [5] = molecular target: T2, human ABCB1; assay: Vanadate-sensitive ATPase activity assay in Sf9 membrane vesicles, ABCB1; type: biochemical; design: made in house; host or cells: Sf9 insect cells (baculovirus), membrane vesicles; ABCB1 ATPase Vmax: unit not given here; conditions: for ABC transporter ATPase assay, ABCB1 (summary): S6 summary table; for Effect on ABCB1-ATPase activity (in words): Sf9 membrane vesicles, 0.1–10 μM for the stimulation in b53; for ABCB1 ATPase Vmax: vanadate-sensitive ATPase, from dose-response curves, basal 5.7±0.7; for ABCB1 ATPase, concentration at Vmax: concentration at which Vmax was seen
human ABCG2 [6] = molecular target: T3, human ABCG2 (Homo sapiens, UniProt Q9UNQ0); assay: Vanadate-sensitive ATPase activity assay in Sf9 membrane vesicles, ABCG2; type: biochemical; design: made in house; host or cells: Sf9 insect cells (baculovirus), membrane vesicles; ABCG2 ATPase, concentration at Vmax: unit not given here; conditions: for ABC transporter ATPase assay, ABCG2 (summary): S6 summary table; for Effect on ABCG2-ATPase activity (in words): Sf9 membrane vesicles, 0.1–10 μM for stimulation, 50 μM for inhibition; for ABCG2 ATPase Vmax: vanadate-sensitive ATPase, from dose-response curves, basal 22±1.4; for ABCG2 ATPase, concentration at Vmax: concentration at which Vmax was seen
T3 sequence (Q9UNQ0 1-655): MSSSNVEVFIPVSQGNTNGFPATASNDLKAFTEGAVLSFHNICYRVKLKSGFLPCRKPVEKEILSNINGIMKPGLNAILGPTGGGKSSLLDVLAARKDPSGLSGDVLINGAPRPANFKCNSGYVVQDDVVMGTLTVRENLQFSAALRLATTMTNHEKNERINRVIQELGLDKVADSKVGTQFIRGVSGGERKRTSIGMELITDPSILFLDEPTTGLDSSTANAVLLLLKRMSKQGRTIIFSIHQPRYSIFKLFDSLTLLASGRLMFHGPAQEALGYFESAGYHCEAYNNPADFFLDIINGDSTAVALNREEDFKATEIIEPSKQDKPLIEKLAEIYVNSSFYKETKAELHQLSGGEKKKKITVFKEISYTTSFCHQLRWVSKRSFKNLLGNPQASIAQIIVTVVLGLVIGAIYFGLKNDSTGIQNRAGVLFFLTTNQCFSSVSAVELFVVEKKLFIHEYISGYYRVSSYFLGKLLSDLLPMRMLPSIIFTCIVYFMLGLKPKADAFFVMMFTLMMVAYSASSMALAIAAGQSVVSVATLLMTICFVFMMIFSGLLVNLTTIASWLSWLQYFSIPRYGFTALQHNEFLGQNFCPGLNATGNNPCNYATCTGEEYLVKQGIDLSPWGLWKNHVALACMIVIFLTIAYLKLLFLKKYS

human ABCG2 [7] = molecular target: T3, human ABCG2; assay: Cellular transport assay, DCV or mitoxantrone uptake in ABCG2-overexpressing PLB cells; type: cell-based; design: expressed in transfected cells; host or cells: PLB (human lymphoblastoid) cells, lentiviral transduction; conditions: for ABC transporter transport assay, ABCG2 (summary): S6 summary table; for Effect on ABCG2 mediated transport (in words): PLB cells, compound 5 μM
Procedure: as §3

SMILES	Toxicity in HFF cell line, IC50 (HFF cell line)	IC50 (HEK293 cell line) [µM]	IC50 (parental A431 cell line; Homo sapiens, A-431, 72 h) [µM]	Complete inhibition of MtTopoI (MtTopo-I) [µM]	MIC90 (H37Rv Mtb strain) [µM]	Toxicity in H37Rv assay (summary) (H37Rv Mtb strain)	ABC transporter transport assay, ABCB1 (summary) (human ABCB1 [1])	Toxicity in human cell lines (in words) [2]	ABC transporter ATPase assay, ABCB1 (summary) (human ABCB1 [5])	Effect on ABCB1-ATPase activity (in words) (human ABCB1 [5])	ABCB1 ATPase Vmax (human ABCB1 [5])	ABC transporter ATPase assay, ABCG2 (summary) (human ABCG2 [6])	Effect on ABCG2-ATPase activity (in words) (human ABCG2 [6])	ABCG2 ATPase Vmax (human ABCG2 [6])	ABC transporter transport assay, ABCG2 (summary) (human ABCG2 [7])	Toxicity in HEK293 cell line, IC50 (HEK293 cell line)	Toxicity in parental A431 cell line, IC50 (parental A431 cell line)	Toxicity in mammalian cell lines (summary) ([2]; human, 72 h)	ABCB1 ATPase, concentration at Vmax (human ABCB1 [5]) [µM]	ABCG2 ATPase, concentration at Vmax (human ABCG2 [6])	further results
CCc1c2c(nc3ccc(OC(=O)N4CCC(N5CCCCC5)CC4)cc13)-c1cc3c(c(=O)n1C2)COC(=O)[C@]3(O)CC [Irinotecan, reference compound]	Non-toxic	2.5	8.6																		
COc1ccc(/C=C/c2nc(NCCCN(C)C)c3cc4ccccc4cc3n2)cc1 [VCC340963]		10 to 20	< 5	10 to 25	2.5 (≈ 1.03 µg/mL)	+	+	toxic	0	no measurable effect	7.9±1.2	0	no measurable effect	22.2±4	+						Growth inhibition of H37Rv mycobacteria (in words) (H37Rv Mtb strain): effectively inhibited the growth; IC50 (HFF cell line; Homo sapiens, HFF): < 5 µM; IC50 (HFF cell line): 2.5 to 5 µM; IC50 (parental A431 cell line): 3.23 µM; Toxicity in mammalian cell lines (summary) [2]: +; ABC transporter modified cytotoxicity, ABCB1 (summary) [3]: 0; ABC transporter modified cytotoxicity, ABCG2 (summary) [4]: 0
Cc1ccc(-n2nc(C(C)(C)C)cc2Nc2nc3ccccc3nc2NCCCO)cc1 [VCC389777]	Non-toxic			7.5 to 10		0	+	non-toxic	+	well measurable stimulatory effect	14.4±1.5	+	significantly stimulated; also recorded: slightly increased	32.0±3.6	+	Non-toxic	Non-toxic	0	12.5	0.4	MIC90 of compounds in H37Rv growth test (H37Rv Mtb strain): N.I.; Effect on ABCB1-ATPase activity (in words) (human ABCB1 [5]; listed as VCC38977): slightly increased
Brc1c2ccccc2c(Br)c2nc(-c3ccco3)c(-c3ccco3)nc12 [VCC450327]	Non-toxic			0.1		0	0	non-toxic			9.6±1.3			27.2±0.8	+	Non-toxic	Non-toxic	0	0.19	0.4	MIC90 of compounds in H37Rv growth test (H37Rv Mtb strain): N.I.; Effect on ABCB1 mediated transport (in words) (human ABCB1 [1]): no effect; Effect on ABCG2 mediated transport (in words) (human ABCG2 [7]): only moderately influence; also recorded: only a slight effect
Cc1ccc(C)c(SCc2nc3cc4ccccc4cc3nc2CSc2cc(C)ccc2C)c1 [VCC891909]	Non-toxic+			7.5 to 10	10.4 (≈ 5 µg/mL)	+	0		0	no measurable effect	7.8±1.2	0	no measurable effect	25.3±5	0	Non-toxic	Non-toxic	0	3	0.01	Growth inhibition of H37Rv mycobacteria (in words) (H37Rv Mtb strain): Mtb growth inhibitory effect; Effect on ABCB1 mediated transport (in words) (human ABCB1 [1]): no such transporter inhibitory effect; Effect on ABCG2 mediated transport (in words) (human ABCG2 [7]): no such transporter inhibitory effect
O=c1c(O)c(-c2ccc(O)c(O)c2)oc2cc(O)cc(O)c12 [quercetin, reference compound]														38.5±1							
